Assay results as given in PubChem BioAssay AID179 (DTP/NCI, 2004).
Several values for one entry are separate records, joined by “and”; a condition that tells them apart may be missing. Equal values may be shown once. Activity calls are given as the source filed them.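 Rule for the calls: active = compounds giving half or more protection of infected cells from virus-caused growth loss, again on retest; inactive = the rest.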

System: CEM cells HIV-1 protection, formazan growth assay
Test: NCI AIDS Antiviral Assay
Details: for IC50: measured here: growth of uninfected CEM cells
Summary of the method: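 Protection of CEM cells against HIV-1 measured as cell growth via soluble formazan read-out, with five concentrations tested on both infected and uninfected cells; failure to protect may reflect toxicity.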

## CNCc1c2c(O)c3c(O)c(C)c4c(c3c1O)C(=O)C(C)(O/C=C/C(OC)C(C)C(OC(C)=O)C(C)C(O)C(C)C(O)C(C)/C=C/C=C(/C)C(=O)N2)O4 (stereo not drawn)
  EC50: > 200 µM
  IC50: 16.6 µM

## O=C(N/N=C(\c1nc2ccc(Cl)cc2[nH]c1=O)C(O)c1ccccc1Cl)c1ccncc1 (stereo not drawn)
  EC50: > 537 µM
  IC50: > 537 µM

## COc1ccc(C)cc1C1CCC(=O)O1 (stereo not drawn)
  EC50: > 1200 µM
  IC50: > 1200 µM

## CCC/[N+]([O-])=C/c1ccc([N+](=O)[O-])o1
  outcome: inactive

## COc1ccc(OC(C(=O)O)c2ccccc2)c2c1CCCC2=O (stereo not drawn)
  outcome: inactive

## COc1c(O)c(C=O)c2c(O)c(-c3c(C)cc4c(C(C)C)c(OC)c(O)c(C=O)c4c3O)c(C)cc2c1C(C)C
  EC50: > 151 µM
  IC50: 2.57 µM

## CN(C)P(=O)(c1ccccc1)c1ccccc1
  EC50: > 200 µM
  IC50: > 200 µM

## O=C1C2=C(CCCCC2)C2CCCCC12O (stereo not drawn)
  EC50: > 200 µM
  IC50: > 200 µM

## CC(C)N([PH2+]N(C(C)C)C(C)C)C(C)C.[C-]#[O+].[C-]#[O+].[C-]#[O+].[C-]#[O+].[C-]#[O+].[Mo]
  EC50: > 77.6 µM
  IC50: > 77.6 µM

## CN(C)c1ccc(/C=N\N2C(=O)c3ccccc3C2=O)cc1
  EC50: > 123 µM
  IC50: > 123 µM

## CC(=O)OCC1OC(n2c(C)c(N=Nc3ccc(C)cc3)c(C)c(C#N)c2=S)C(OC(C)=O)C(OC(C)=O)C1OC(C)=O (stereo not drawn)
  EC50: > 200 µM
  IC50: > 200 µM

## C[C@H]1C(=O)CC[C@]2(C)CCC(C(C)(C)O)CC12O (stereo partly drawn)
  outcome: inactive

## COc1ccccc1NCC(=O)Nn1c(C)nc2ccc(S(=O)(=O)Nc3ccccc3OC)cc2c1=O
  EC50: > 200 µM
  IC50: 148 µM

## Cc1cc(C)c2c(n1)sc1c(=O)n(N)c(C)nc12
  outcome: inactive

## O=C(O)c1ccc(N=Nc2cc(S(=O)(=O)O)c3cccnc3c2O)cc1
  EC50: > 19.5 µM
  IC50: > 19.5 µM

## COCCNc1cncc(C(N)=O)c1
  EC50: > 200 µM
  IC50: > 200 µM

## O=C(O)c1cc(-c2ccccc2O)nc2ccccc12
  EC50: > 355 µM
  IC50: 191 µM

## O=C1N[C@H]2c3c(Cl)sc(Cl)c3[C@@H](O)[C@H]2O1
  EC50: > 200 µM
  IC50: > 200 µM

## NC(=O)C(F)(Cc1ccccc1)C(=O)O (stereo not drawn)
  EC50: > 200 µM
  IC50: > 200 µM

## CC1=Nc2c(C#N)ncn2N=C(C)C1
  EC50: > 200 µM
  IC50: > 200 µM

## O=C(O)CCNC(=O)c1ccccc1SC(=O)CCCC[n+]1ccccc1
  EC50: 21.9 µM
  IC50: > 200 µM

## N#CC1=C(N)Oc2c(ccc3cccnc23)C1c1ccccc1 (stereo not drawn)
  EC50: > 120 µM
  IC50: 1.7 µM

## Cc1cccc2c1Sc1ccccc1C2NC(=O)CCN(C)C (stereo not drawn)
  EC50: > 550 µM
  IC50: 31.6 µM

## O=c1[nH]cc(SSc2c[nH]c(=O)[nH]c2=O)c(=O)[nH]1
  EC50: 138 µM
  IC50: > 200 µM

## COc1cc2c(cc1OC)C(OC)N(C)c1c-2ccc2cc3c(cc12)OCO3 (stereo not drawn)
  EC50: > 20 µM
  IC50: 0.309 µM

## CC(=O)N(C(C)=O)c1ccc(-c2cccs2)oc1=O
  EC50: > 200 µM
  IC50: > 200 µM

## N#Cc1cc([N+](=O)[O-])ccc1NC(=O)C(=O)Nn1c(=S)[nH]c2ccccc2c1=O
  outcome: inactive

## CN(C)c1nc(=NCc2ccccc2)ss1
  EC50: > 200 µM
  IC50: 10.2 µM

## CCOC(=O)c1ccc(N(CC(=O)O)S(=O)(=O)c2ccc(C)cc2)s1
  EC50: > 20 µM
  IC50: > 20 µM

## CC1=NN(C(=O)Cc2ccccc2)C(=O)/C1=C\c1ccc(O)cc1
  EC50: > 16.2 µM
  IC50: > 16.2 µM

## CC(Oc1ccc(OCC2CCCCC2)cc1)C(=O)NCc1ccco1 (stereo not drawn)
  EC50: > 28.2 µM
  IC50: > 28.2 µM

## O=CCc1c2c(nc3ccccc13)C(=O)c1ccccc1C2=O
  EC50: > 20 µM
  IC50: 7.94 µM

## COC(=O)[C@H](Cc1ccccc1)NP(=O)(OCCC#N)OCC1OC(n2cc(C)c(=O)[nH]c2=O)CC1N=[N+]=[N-] (stereo partly drawn)
  EC50: 0.513 µM
  IC50: > 200 µM

## O=C1c2ccccc2C(C2c3ccccc3C(=O)c3ccccc32)c2ccccc21
  outcome: inactive

## COc1ccc2c3c1OC1C(OC)(OC)CC4(C=C2)CN(C)CCC314 (stereo not drawn)
  outcome: inactive

## CC1Cn2c(=S)[nH]c3cccc(c32)NC1=O (stereo not drawn)
  EC50: > 200 µM
  IC50: > 200 µM

## Cc1ccc(/C=C2\CCCC\C2=N\O)cc1
  outcome: inactive

## COC(=O)CCCC(=O)C(=Nc1c(Cl)cccc1Cl)NNc1ccc(Cl)cc1
  EC50: > 200 µM
  IC50: 35.5 µM

## CCn1c(=O)c(N=O)c(N)n(CCO)c1=O
  EC50: > 200 µM
  IC50: > 200 µM

## Brc1ccc2noc(-c3ccccc3)c2c1
  EC50: > 7.24 µM
  IC50: > 7.24 µM

## COC(=O)CCCC=C(c1cc(Br)c(OC)c(C(=O)OC)c1)c1cc(Br)c(OC)c(C(=O)OC)c1
  EC50: 1.82 µM
  IC50: 42.7 µM

## O=c1cn[nH]c2c(Cl)cccc12
  EC50: > 589 µM
  IC50: 355 µM

## C(/COc1cccnc1)=N\NC1=NCCN1
  EC50: > 832 µM
  IC50: 186 µM

## O=CC1CCCc2ccccc21 (stereo not drawn)
  EC50: > 44.7 µM
  IC50: > 44.7 µM

## O=C1c2ccccc2C(=O)N1N1C(=O)C2C3CCC(O3)C2C1=O (stereo not drawn)
  EC50: > 200 µM
  IC50: 95.5 µM

## CN(CCCn1ccnc1[N+](=O)[O-])CCCn1ccnc1[N+](=O)[O-]
  EC50: > 200 µM
  IC50: 83.2 µM

## O=C(O)CN(CCN(CC(=O)O)CC(=O)O)CC(=O)O
  EC50: > 200 µM
  IC50: > 200 µM

## O=C(Nc1ccccc1-c1nn(C(=S)Nc2ccccc2)c(=S)n(C(=S)Nc2ccccc2)c1=O)C(F)(F)F
  outcome: inactive

## COC(=O)c1ccccc1/C=C1\Cc2ccc3ccccc3c2C1C (stereo not drawn)
  EC50: > 200 µM
  IC50: > 200 µM

## COC1=C2C=[N+](C)C3C(=C2C=CC1OC)Cc1cc2c(cc13)OCO2 (stereo not drawn)
  EC50: > 631 µM
  IC50: 3.63 µM

## S=C(NN1CCOCC1)SSC(=S)NN1CCOCC1
  EC50: > 20 µM
  IC50: 0.933 µM

## COc1ccc2[nH]c(C(O)(Cc3cccnc3)Cc3cccnc3)cc2c1
  EC50: 191 µM
  IC50: > 200 µM

## COCOCC1CCCN1CN1CCC[C@H]1COCOC (stereo partly drawn)
  EC50: > 200 µM
  IC50: 107 µM

## COc1ccc(C(c2cc(OC)c(OC)c(OC)c2)N2C(=O)CCC2C(=O)O)cc1 (stereo not drawn)
  EC50: > 200 µM
  IC50: 33.1 µM

## Cc1cccc(C(C)(C)C)c1NC(=O)CCc1n[nH]c(=S)o1
  EC50: > 776 µM
  IC50: 692 µM

## COc1ccc2c(=O)c(-c3ccc(OC)c(OC)c3)c(C)oc2c1
  EC50: > 200 µM
  IC50: > 200 µM

## CCC1=C(c2cccc(OC(C)=O)c2)C(C)c2ccc(OC(C)=O)cc21 (stereo not drawn)
  EC50: > 200 µM
  IC50: 7.41 µM

## Cn1ccc2c(c1=O)C(=O)OC2(C)C
  EC50: > 200 µM
  IC50: > 200 µM

## COC(=O)Nc1nc2ccc(C(=O)c3ccc[nH]3)cc2[nH]1
  EC50: > 200 µM
  IC50: 0.977 µM and 1.66 µM

## O=[N+]([O-])[O-].O=[N+]([O-])[O-].[Au].[Au].c1ccc([P-]c2ccccc2)cc1.c1ccc([P-]c2ccccc2)cc1
  EC50: > 4.27 µM
  IC50: > 4.27 µM

## CCOC(=O)CSc1nc(N)c2c(-c3ccccc3)c3c(nc2n1)CCCC3
  EC50: > 200 µM
  IC50: > 200 µM

## O=C1NC(=O)C(=Cc2ccccc2F)C(=O)N1
  EC50: > 1070 µM
  IC50: > 1070 µM

## O=C1NC(=O)/C(=C\c2cccc(O)c2)N1
  EC50: > 200 µM
  IC50: > 200 µM

## CCCCCCCCCCCCCC(=O)O[C@H]1CC[C@H](NC(=O)[C@H](OC)[C@H](O)[C@@H](O)[C@H](O)/C=C/C(C)C)C(=O)NC1
  EC50: > 2 µM
  IC50: 0.00661 µM

## COc1cc2c(cc1OC)C(=O)Cc1ccc(OC)c(OC)c1CN(C)CC2
  EC50: > 67.6 µM
  IC50: > 67.6 µM

## CC(=O)NS(=O)(=O)c1ccc(NC(=O)COC(=O)c2cccc3c(=O)c4ccccc4[nH]c23)cc1
  EC50: > 363 µM
  IC50: 245 µM

## CCC[CH2][Sn]([CH2]CCC)([O]C(=O)c1cc(OC)c(OC)cc1OC)[O]C(=O)c1cc(OC)c(OC)cc1OC
  EC50: > 39.8 µM
  IC50: 0.776 µM

## COC(=O)C1C(=O)NC2(C)CC1c1ccccc1O2 (stereo not drawn)
  outcome: inactive

## O=NC1(c2ccccc2)CCCCC1[N+](=O)[O-] (stereo not drawn)
  EC50: > 200 µM
  IC50: > 200 µM

## CSc1nc(C)c(CCOC(C)=O)c(N=P(c2ccccc2)(c2ccccc2)c2ccccc2)n1
  EC50: > 200 µM
  IC50: 28.8 µM

## O=C(O)CCC(=O)NNC(=O)CCC(=O)O
  EC50: > 155 µM
  IC50: > 155 µM

## CC#CCCC1CCCCNC1=O (stereo not drawn)
  EC50: > 138 µM
  IC50: > 138 µM

## CC1(C)O[C@H]2[C@H](O)C[C@](O)(CO)C[C@H]2O1
  outcome: inactive

## O=C1c2ccccc2C(=O)c2c1ccc1c2[nH]c2ccccc21
  outcome: inactive

## Nc1n(CC(=O)c2ccccc2)nc2sc(-c3ccccc3)n[n+]12
  EC50: > 200 µM
  IC50: 10.2 µM

## O=c1[nH]nc(-c2ccccc2)n1/N=C/c1ccc([N+](=O)[O-])cc1
  EC50: > 200 µM
  IC50: > 200 µM

## C1CCN(CCCSSCCCN2CCCCC2)CC1
  EC50: > 200 µM
  IC50: 91.2 µM

## O=C(COc1ccc2c(=O)cc(-c3ccccc3)oc2c1)N1CCN(c2ccccc2)CC1
  EC50: > 16.2 µM
  IC50: > 16.2 µM

## CC(C)[Si]1(C(C)C)OCC2OC(n3ccc(=O)[nH]c3=O)C([Se]c3ccccc3)C2O[Si](C(C)C)(C(C)C)O1 (stereo not drawn)
  EC50: > 200 µM
  IC50: 10.7 µM

## CCCCCCCCCCCC(C(=O)O)C(=O)O
  EC50: > 138 µM
  IC50: > 138 µM

## CCCCCCCCCCCC(=O)Nc1ccc(SSc2ccc(NC(=O)CCCCCCCCCCC)cc2)cc1
  EC50: > 200 µM
  IC50: > 200 µM

## Cc1cc(N(CCC#N)CCC#N)ccc1/C=C1\N=C(c2cc([N+](=O)[O-])ccc2Cl)N(c2cccc(Cl)c2)C1=O
  EC50: > 12.6 µM
  IC50: > 12.6 µM

## CC(=O)NNC(=S)N/C=C/c1c(C)ccc([N+](=O)[O-])c1[N+](=O)[O-]
  EC50: > 200 µM
  IC50: 41.7 µM

## COc1cc2c(cc1OC)-c1c(cc(OC)c(OC)c1OC)C2=O
  outcome: inactive

## C#CCCOC(=O)c1ccccc1OC(C)=O
  EC50: > 200 µM
  IC50: > 200 µM

## OCC1(CO)CCC1(CO)CO
  outcome: inactive

## COc1ccccc1-c1cc(B(O)O)ccc1OC
  EC50: > 200 µM
  IC50: 40.7 µM

## O=C(c1ccccc1)c1ccsc1C(=O)c1ccccc1
  EC50: > 200 µM
  IC50: 36.3 µM

## N#Cc1ccc(Cc2ccccn2)cc1Cl
  outcome: inactive
